Test results reported in the supplement of paper PMC10627819.

Key:
[1] = system: S. pneumoniae D39V; experiment: fitness (endpoint OD595 vs no drug) (fraction); higher = more growth
In short: (§1)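 Background-subtracted growth curves were the basis for fitness, taken as the optical density at entry into stationary phase over the robust mean of no-drug control wells. A cap of 1 was applied. The curves came from OD595 readings every 30 min for 14 h at 37 °C, in 384-well plates seeded at OD595 0.01 with 30 µl, or 55 µl for S. pneumoniae.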

[2] = system: B. subtilis 168; experiment: as above
In short: as §1

[3] = system: S. pneumoniae D39V; experiment: Bliss interaction score (quartile over a dose matrix) (fitness difference); higher = more antagonism (negative = synergy)
In short: (§2)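 Fitness is OD595 at stationary-phase entry relative to the plate's robust no-drug mean, capped at 1. Single-drug fitness was inferred from combinations. The Bliss score is observed minus product-expected fitness, summarised by quartiles over technical, biological and donor/recipient replicates.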

[4] = system: S. aureus Newman; experiment: as above
In short: as §2

[5] = system: B. subtilis 168; experiment: as above
In short: as §2

[6] = system: S. aureus DSM 20231; experiment: as above
In short: as §2
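Throughout, for Bliss interaction score (quartile over a dose matrix): first quartile when negative (synergy) and third quartile when positive (antagonism).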

With C[C@H]1COc2c(N3CCN(C)CC3)c(F)cc3c(=O)c(C(=O)O)cn1c23 [Levofloxacin] + Cc1ncc([N+](=O)[O-])n1CCO [Metronidazole] the fitness ([1]; first compound 0.1725 µg/mL, partner 1.25 µg/mL) was 0.985, the fitness ([1]; first compound 0.1725 µg/mL, partner 2.5 µg/mL) was 0.993 and the fitness ([1]; first compound 0.1725 µg/mL, partner 5 µg/mL) was 0.976. For the same molecule, the fitness ([1]; first compound 0.2 µg/mL, partner 1.073 µg/mL) was 0.95, the fitness ([1]; first compound 0.2 µg/mL, partner 2.145 µg/mL) was 0.91 and the fitness ([1]; first compound 0.2 µg/mL, partner 4.29 µg/mL) was 0.899. It also gave a fitness ([1]; first compound 0.345 µg/mL, partner 1.25 µg/mL) of 0.903, a fitness ([1]; first compound 0.345 µg/mL, partner 2.5 µg/mL) of 0.92 and a fitness ([1]; first compound 0.345 µg/mL, partner 5 µg/mL) of 0.931. The fitness ([1]; first compound 0.4 µg/mL, partner 1.073 µg/mL) was 0.873, the fitness ([1]; first compound 0.4 µg/mL, partner 2.145 µg/mL) was 0.85 and the fitness ([1]; first compound 0.4 µg/mL, partner 4.29 µg/mL) was 0.819. For the same molecule, the fitness ([1]; first compound 0.69 µg/mL, partner 1.25 µg/mL) was 0.7, the fitness ([1]; first compound 0.69 µg/mL, partner 2.5 µg/mL) was 0.704 and the fitness ([1]; first compound 0.69 µg/mL, partner 5 µg/mL) was 0.686. It also gave a fitness ([1]; first compound 0.8 µg/mL, partner 1.073 µg/mL) of 0.765, a fitness ([1]; first compound 0.8 µg/mL, partner 2.145 µg/mL) of 0.765 and a fitness ([1]; first compound 0.8 µg/mL, partner 4.29 µg/mL) of 0.71. It also gave a fitness ([2]; first compound 0.001 µg/mL, partner 0.625 µg/mL, one replicate) of 0.946, a fitness ([2]; first compound 0.001 µg/mL, partner 1.25 µg/mL, one replicate) of 0.96 and a fitness ([2]; first compound 0.001 µg/mL, partner 2.5 µg/mL, one replicate) of 0.965. It also gave a fitness ([2]; first compound 0.002 µg/mL, partner 0.625 µg/mL, one replicate) of 0.911, a fitness ([2]; first compound 0.002 µg/mL, partner 1.25 µg/mL, one replicate) of 0.85 and a fitness ([2]; first compound 0.002 µg/mL, partner 2.5 µg/mL, one replicate) of 0.929. For the same molecule, the fitness ([2]; first compound 0.0039 µg/mL, partner 0.625 µg/mL, one replicate) was 0.852, the fitness ([2]; first compound 0.0039 µg/mL, partner 1.25 µg/mL, one replicate) was 0.845 and the fitness ([2]; first compound 0.0039 µg/mL, partner 2.5 µg/mL, one replicate) was 0.855. For the same molecule, the fitness ([2]; first compound 0.0312 µg/mL, partner 0.625 µg/mL) was 0.0462, the fitness ([2]; first compound 0.0312 µg/mL, partner 1.25 µg/mL) was 0.0567 and the fitness ([2]; first compound 0.0312 µg/mL, partner 2.5 µg/mL) was 0.0324. It also gave a fitness ([2]; first compound 0.0625 µg/mL, partner 0.625 µg/mL) of 0.0491, a fitness ([2]; first compound 0.0625 µg/mL, partner 1.25 µg/mL) of 0.0521 and a fitness ([2]; first compound 0.0625 µg/mL, partner 2.5 µg/mL) of 0.0541. It also gave a fitness ([2]; first compound 0.125 µg/mL, partner 0.625 µg/mL) of 0.0404, a fitness ([2]; first compound 0.125 µg/mL, partner 1.25 µg/mL) of 0.0466 and a fitness ([2]; first compound 0.125 µg/mL, partner 2.5 µg/mL) of 0.0398. For the same molecule, the Bliss interaction score [3] was 0.121, the Bliss interaction score [4] was -0.0661 and the Bliss interaction score [5] was 0.0195. For the same molecule, the Bliss interaction score [6] was -0.0575.

With C[C@H]1COc2c(N3CCN(C)CC3)c(F)cc3c(=O)c(C(=O)O)cn1c23 [Levofloxacin] + Cc1onc(-c2ccccc2)c1C(=O)N[C@@H]1C(=O)N2[C@@H]1SC(C)(C)[C@@H]2C(=O)O [Oxacillin] the fitness ([1]; first compound 0.1725 µg/mL, partner 0.01 µg/mL) was 0.972, the fitness ([1]; first compound 0.1725 µg/mL, partner 0.02 µg/mL) was 0.917 and the fitness ([1]; first compound 0.2 µg/mL, partner 0.01 µg/mL) was 0.928. It also gave a fitness ([1]; first compound 0.2 µg/mL, partner 0.02 µg/mL) of 0.898, a fitness ([1]; first compound 0.2 µg/mL, partner 0.04 µg/mL) of 0.495 and a fitness ([1]; first compound 0.345 µg/mL, partner 0.01 µg/mL) of 0.9. The fitness ([1]; first compound 0.345 µg/mL, partner 0.02 µg/mL) was 0.894, the fitness ([1]; first compound 0.4 µg/mL, partner 0.01 µg/mL) was 0.809 and the fitness ([1]; first compound 0.4 µg/mL, partner 0.02 µg/mL) was 0.785. The fitness ([1]; first compound 0.4 µg/mL, partner 0.04 µg/mL) was 0.402, the fitness ([1]; first compound 0.69 µg/mL, partner 0.01 µg/mL) was 0.704 and the fitness ([1]; first compound 0.69 µg/mL, partner 0.02 µg/mL) was 0.571. The fitness ([1]; first compound 0.8 µg/mL, partner 0.04 µg/mL) was 0.24, the fitness ([2]; first compound 0.001 µg/mL, partner 0.0078 µg/mL, one replicate) was 0.942 and the fitness ([2]; first compound 0.001 µg/mL, partner 0.0155 µg/mL, one replicate) was 0.965. The fitness ([2]; first compound 0.001 µg/mL, partner 0.031 µg/mL, one replicate) was 0.932, the fitness ([2]; first compound 0.002 µg/mL, partner 0.0078 µg/mL, one replicate) was 0.898 and the fitness ([2]; first compound 0.002 µg/mL, partner 0.0155 µg/mL, one replicate) was 0.936. For the same molecule, the fitness ([2]; first compound 0.002 µg/mL, partner 0.031 µg/mL, one replicate) was 0.876, the fitness ([2]; first compound 0.002 µg/mL, partner 0.075 µg/mL, one replicate) was 0.476 and the fitness ([2]; first compound 0.002 µg/mL, partner 0.15 µg/mL, one replicate) was 0.0412. For the same molecule, the fitness ([2]; first compound 0.002 µg/mL, partner 0.3 µg/mL, one replicate) was 0.0517, the fitness ([2]; first compound 0.0039 µg/mL, partner 0.0078 µg/mL, one replicate) was 0.832 and the fitness ([2]; first compound 0.0039 µg/mL, partner 0.0155 µg/mL, one replicate) was 0.849. The fitness ([2]; first compound 0.0039 µg/mL, partner 0.031 µg/mL, one replicate) was 0.741, the fitness ([2]; first compound 0.0039 µg/mL, partner 0.075 µg/mL, one replicate) was 0.416 and the fitness ([2]; first compound 0.0039 µg/mL, partner 0.15 µg/mL, one replicate) was 0.038. For the same molecule, the fitness ([2]; first compound 0.0039 µg/mL, partner 0.3 µg/mL, one replicate) was 0.0324, the fitness ([2]; first compound 0.0078 µg/mL, partner 0.075 µg/mL, one replicate) was 0.592 and the fitness ([2]; first compound 0.0078 µg/mL, partner 0.15 µg/mL, one replicate) was 0.0582. The fitness ([2]; first compound 0.0078 µg/mL, partner 0.3 µg/mL, one replicate) was 0.0577, the fitness ([2]; first compound 0.0312 µg/mL, partner 0.002 µg/mL) was 0.0448 and the fitness ([2]; first compound 0.0312 µg/mL, partner 0.004 µg/mL) was 0.0387. The fitness ([2]; first compound 0.0312 µg/mL, partner 0.008 µg/mL) was 0.0483, the fitness ([2]; first compound 0.0625 µg/mL, partner 0.002 µg/mL) was 0.0429 and the fitness ([2]; first compound 0.0625 µg/mL, partner 0.004 µg/mL) was 0.0548. It also gave a fitness ([2]; first compound 0.0625 µg/mL, partner 0.008 µg/mL) of 0.0559, a fitness ([2]; first compound 0.125 µg/mL, partner 0.002 µg/mL) of 0.0397 and a fitness ([2]; first compound 0.125 µg/mL, partner 0.004 µg/mL) of 0.0414. It also gave a fitness ([2]; first compound 0.125 µg/mL, partner 0.008 µg/mL) of 0.0574, a Bliss interaction score [3] of 0.11 and a Bliss interaction score [4] of 0.0619. The Bliss interaction score [5] was -0.0169 and the Bliss interaction score [6] was 0.0488.
